Data on 43 compounds can be found in ChEMBL document CHEMBL3091384, “Chemical probes to study ADP-ribosylation: synthesis and biochemical evaluation of inhibitors of the human ADP-ribosyltransferase ARTD3/PARP3” (J Med Chem, 2013).

The species entered for one experiment is Homo sapiens. Kind of experiment: Binding affinity to […] (unknown origin) assessed as change in melting temperature by thermal stabilization assay.
The subject of experiment [1] is Poly [ADP-ribose] polymerase 14, ARTD8/PARP14 (Homo sapiens).
Experiment [2] addresses Poly [ADP-ribose] polymerase 2 (Homo sapiens) (UniProt Q9UGN5).
For experiment [3], the target named is Poly [ADP-ribose] polymerase 1 (Homo sapiens, UniProt P09874).
Experiment [4] deals with T1, Protein mono-ADP-ribosyltransferase PARP3 (Homo sapiens) (UniProt Q9Y6F1).
T1 sequence (whole entry): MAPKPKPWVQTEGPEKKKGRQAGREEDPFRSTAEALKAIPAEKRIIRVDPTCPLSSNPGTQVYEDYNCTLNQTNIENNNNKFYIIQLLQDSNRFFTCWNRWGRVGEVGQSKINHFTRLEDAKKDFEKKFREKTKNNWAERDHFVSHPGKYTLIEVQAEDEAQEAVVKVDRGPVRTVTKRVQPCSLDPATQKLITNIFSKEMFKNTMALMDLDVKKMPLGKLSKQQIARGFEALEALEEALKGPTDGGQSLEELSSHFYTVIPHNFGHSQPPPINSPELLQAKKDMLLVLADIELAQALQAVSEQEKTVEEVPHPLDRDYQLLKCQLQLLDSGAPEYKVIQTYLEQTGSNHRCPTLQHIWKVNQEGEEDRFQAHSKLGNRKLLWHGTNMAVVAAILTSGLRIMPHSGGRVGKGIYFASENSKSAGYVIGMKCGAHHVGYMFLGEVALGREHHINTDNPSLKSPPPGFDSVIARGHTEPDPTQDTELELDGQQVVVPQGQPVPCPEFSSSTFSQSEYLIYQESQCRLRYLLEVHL

Chain of Poly [ADP-ribose] polymerase 2 (Homo sapiens) (Q9UGN5 whole entry): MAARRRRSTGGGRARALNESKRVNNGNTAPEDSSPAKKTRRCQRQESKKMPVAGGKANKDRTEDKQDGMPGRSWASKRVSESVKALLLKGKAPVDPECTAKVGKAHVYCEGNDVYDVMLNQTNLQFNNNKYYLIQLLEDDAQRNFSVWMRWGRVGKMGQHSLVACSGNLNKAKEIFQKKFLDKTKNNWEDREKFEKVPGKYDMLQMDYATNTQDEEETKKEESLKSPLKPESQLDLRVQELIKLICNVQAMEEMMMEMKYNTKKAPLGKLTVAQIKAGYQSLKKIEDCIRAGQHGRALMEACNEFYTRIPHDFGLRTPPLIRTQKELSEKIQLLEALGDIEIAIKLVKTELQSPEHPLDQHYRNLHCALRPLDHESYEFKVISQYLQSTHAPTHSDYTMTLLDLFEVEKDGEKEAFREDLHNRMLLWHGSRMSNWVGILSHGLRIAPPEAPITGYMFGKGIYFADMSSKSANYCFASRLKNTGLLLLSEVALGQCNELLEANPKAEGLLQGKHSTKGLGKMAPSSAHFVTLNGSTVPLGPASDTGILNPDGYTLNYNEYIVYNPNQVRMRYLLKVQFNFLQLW
Chain of Poly [ADP-ribose] polymerase 1 (P09874 whole entry): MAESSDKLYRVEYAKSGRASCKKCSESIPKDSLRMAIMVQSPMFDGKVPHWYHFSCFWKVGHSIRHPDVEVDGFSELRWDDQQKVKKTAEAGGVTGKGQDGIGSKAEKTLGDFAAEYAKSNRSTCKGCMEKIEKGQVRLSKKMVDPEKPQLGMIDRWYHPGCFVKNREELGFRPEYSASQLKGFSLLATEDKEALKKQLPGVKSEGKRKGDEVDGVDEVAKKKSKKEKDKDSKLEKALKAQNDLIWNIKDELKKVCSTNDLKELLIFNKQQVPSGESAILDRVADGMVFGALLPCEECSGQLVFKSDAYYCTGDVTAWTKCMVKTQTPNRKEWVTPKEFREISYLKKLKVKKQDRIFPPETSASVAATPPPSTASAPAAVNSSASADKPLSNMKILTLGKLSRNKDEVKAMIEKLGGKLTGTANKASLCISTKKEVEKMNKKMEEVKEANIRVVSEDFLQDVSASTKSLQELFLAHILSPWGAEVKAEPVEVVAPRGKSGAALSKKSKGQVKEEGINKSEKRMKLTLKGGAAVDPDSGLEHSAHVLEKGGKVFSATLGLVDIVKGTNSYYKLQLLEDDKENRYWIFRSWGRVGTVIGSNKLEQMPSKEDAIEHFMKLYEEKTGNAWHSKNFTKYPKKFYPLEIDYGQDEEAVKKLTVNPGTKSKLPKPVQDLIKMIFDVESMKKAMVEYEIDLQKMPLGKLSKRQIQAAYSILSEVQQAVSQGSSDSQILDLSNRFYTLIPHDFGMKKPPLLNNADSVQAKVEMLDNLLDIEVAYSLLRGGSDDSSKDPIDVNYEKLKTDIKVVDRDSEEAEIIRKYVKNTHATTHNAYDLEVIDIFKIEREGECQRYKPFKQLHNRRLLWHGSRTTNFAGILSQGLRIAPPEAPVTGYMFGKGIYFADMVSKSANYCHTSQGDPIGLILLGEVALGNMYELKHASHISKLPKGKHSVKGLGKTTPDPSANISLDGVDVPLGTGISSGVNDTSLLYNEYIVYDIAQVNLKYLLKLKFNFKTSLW

In general, ΔTm refers to the shift of the melting midpoint relative to a reference. On to `O=C(CCCc1nc2ccccc2c(=O)[nH]1)N[C@H]1CCc2ccccc21`, for which the ΔTm in the experiment listed under Homo sapiens was 0.59 °C; in experiment [1], -0.18 °C; in experiment [2] it was 1.27 °C; in experiment [3], 1.88 °C; in experiment [4] it was 4.69 °C.
Regarding `O=C(CCc1nc2ccccc2c(=O)[nH]1)N1CCc2ccccc2C1`, the ΔTm in the experiment filed under Homo sapiens is 0.14 °C; in experiment [1], -0.07 °C; in experiment [2], -0.17 °C; in experiment [3] it was 1.15 °C; in experiment [4], 4.73 °C.
`O=C(CCc1nc2ccccc2c(=O)[nH]1)NCCc1ccccc1`: the ΔTm came out at 0.49 °C in the experiment listed under Homo sapiens; 0.2 °C in experiment [1]; 1.57 °C in experiment [2]; 2.83 °C in experiment [3]; 6.23 °C in experiment [4].
With `O=C(CCc1nc2ccccc2c(=O)[nH]1)NC(c1ccccc1)c1ccccc1`, the ΔTm in the experiment filed under Homo sapiens was determined as 0.22 °C; in experiment [1], 0.45 °C; in experiment [2] it was 0.3 °C; in experiment [3], 0.2 °C; in experiment [4] it was 0.2 °C.
As to `C[C@H](NC(=O)CCc1nc2ccccc2c(=O)[nH]1)c1ccccc1`, in the experiment listed under Homo sapiens, the ΔTm came out at 0.13 °C.
The same measure, in the same setting: the result for `CC(NC(=O)CCc1nc2ccccc2c(=O)[nH]1)c1ccccn1` (racemic) reads 0 °C.
With `O=C(CCc1nc2ccccc2c(=O)[nH]1)N[C@H](CO)Cc1ccccc1`, in the experiment listed under Homo sapiens, the ΔTm stood at 0.6 °C.
Regarding `O=C(NCc1ccccc1)NCc1nc2ccccc2c(=O)[nH]1`, the ΔTm in the experiment filed under Homo sapiens was 0.34 °C; in experiment [1], -1.05 °C; in experiment [2], -0.23 °C; in experiment [3] it was 0.65 °C; in experiment [4] it was 2.91 °C.
The like results for `C[C@H](NC(=O)CCc1nc2ccccc2c(=O)[nH]1)c1ccc(Cl)cc1` were, in that order, 0.18 °C, 0.04 °C, -0.59 °C, 0.04 °C and 0.12 °C.
For `O=C(CCc1nc2cc(Cl)ccc2c(=O)[nH]1)NC(c1ccccc1)c1ccccc1`, the shift in melting temperature (ΔTm) is 0.2 °C in the experiment filed under Homo sapiens; 0.82 °C in experiment [1]; 0.83 °C in experiment [2]; 0.11 °C in experiment [3]; 0.35 °C in experiment [4].
On to `NC(=O)[C@H](Cc1ccccc1)NC(=O)CCc1nc2ccccc2c(=O)[nH]1`, for which the ΔTm in the experiment listed under Homo sapiens was 1.08 °C.
On to `CCC(=O)[C@H](Cc1ccccc1)NC(=O)CCc1nc2ccccc2c(=O)[nH]1`, for which the ΔTm in the experiment listed under Homo sapiens was 0.07 °C; in experiment [1] it was 0.13 °C; in experiment [2], 0.98 °C; in experiment [3], 1.93 °C; in experiment [4], 5.71 °C.
For the compound `C[C@@H](NC(=O)CCc1nc2cc(Cl)ccc2c(=O)[nH]1)c1ccccc1`, the ΔTm in the experiment listed under Homo sapiens worked out at 0.43 °C; in experiment [1], 0.05 °C; in experiment [2] it was 1.28 °C; in experiment [3] it was 0.92 °C; in experiment [4], 0.16 °C.
With `C[C@H](NC(=O)CCc1nc2ccccc2c(=O)[nH]1)c1ccccn1`, the ΔTm in the experiment listed under Homo sapiens turned out to be 0.13 °C.
On to `COc1ccccc1CNC(=O)CCc1nc(O)c2ccccc2n1`, for which the ΔTm worked out at 0.54 °C in the experiment filed under Homo sapiens, 1.14 °C in experiment [2], 1.45 °C in experiment [3] and 2.96 °C in experiment [4].
As for `O=C(CCc1nc2cc(Cl)ccc2c(=O)[nH]1)N[C@H](CO)c1ccccc1`, the ΔTm in the experiment filed under Homo sapiens is 0.36 °C; in experiment [1] it was -0.25 °C; in experiment [2], 0.98 °C; in experiment [3], 0.76 °C; in experiment [4], 0.5 °C.
As to `CC[C@H](NC(=O)CCc1nc2ccccc2c(=O)[nH]1)c1ccccc1`, the ΔTm in the experiment filed under Homo sapiens came out at 0.33 °C.
In the case of `C[C@H](NC(=O)CCc1nc2ccccc2c(=O)[nH]1)c1cccc(C(F)(F)F)c1`, the ΔTm was 0.23 °C in the experiment filed under Homo sapiens; -0.37 °C in experiment [1]; -0.6 °C in experiment [2]; 0.25 °C in experiment [3]; 0.69 °C in experiment [4].
Turning to `C[C@@H](NC(=O)Cc1nc2ccccc2c(=O)[nH]1)c1ccccc1`, the ΔTm in the experiment listed under Homo sapiens is 0.05 °C; in experiment [1], -0.04 °C; in experiment [2], -0.25 °C; in experiment [3], 0.37 °C; in experiment [4], 0.63 °C.
Take `O=C(CCc1nc2ccccc2c(=O)[nH]1)N[C@@H](Cc1ccccc1)C(=O)O`: the ΔTm in the experiment filed under Homo sapiens was 0.22 °C; in experiment [1], -0.37 °C; in experiment [2], -0.32 °C; in experiment [3], 0.24 °C; in experiment [4] it was 1.36 °C.
For `CC(NC(=O)CCc1nc2ccccc2c(=O)[nH]1)c1ccncc1` (racemic), the ΔTm was determined as 0.3 °C in the experiment filed under Homo sapiens; 0 °C in experiment [1]; 1.82 °C in experiment [2]; 2.68 °C in experiment [3]; 5.02 °C in experiment [4].
Taken in the same sequence, the figures for `C[C@H](NC(=O)CCc1nc2ccccc2c(=O)[nH]1)c1ccccc1F` were 0.12 °C, 0.12 °C, -0.46 °C, 0.36 °C and 0.42 °C.
In the case of `O=C(CCCc1nc2ccccc2c(=O)[nH]1)N[C@@H]1CCc2ccccc21`, the ΔTm was found to be 1.2 °C in the experiment filed under Homo sapiens; 0.13 °C in experiment [1]; 2.29 °C in experiment [2]; 1.52 °C in experiment [3]; 3.46 °C in experiment [4].
The like results for `O=C(/C=C/c1nc2ccccc2c(=O)[nH]1)N[C@H](CO)Cc1ccccc1` were, in that order, 0.08 °C, -0.7 °C, -0.17 °C, 0.41 °C and 6.25 °C.
Taken in the same sequence, the figures for `O=C(CCCc1nc2ccccc2c(=O)[nH]1)NC(c1ccccc1)c1ccccc1` were 0.41 °C, 0.02 °C, 0.53 °C, 0.44 °C and 0.09 °C.
As for `O=C(CCc1nc2ccccc2c(=O)[nH]1)N[C@H](CO)c1ccccc1`, the ΔTm in the experiment listed under Homo sapiens was 0.82 °C; in experiment [1] it was 0.38 °C; in experiment [2], 1.64 °C; in experiment [3], 2.83 °C; in experiment [4], 3.57 °C.
Turning to `C[C@@H](NC(=O)CCc1nc2ccccc2c(=O)[nH]1)c1ccccc1`, the ΔTm in the experiment listed under Homo sapiens came to 0.35 °C.
On to `O=C(CCc1nc2ccccc2c(=O)[nH]1)NC(c1ccc(Cl)cc1)C1CC1` (racemic), for which the ΔTm in the experiment listed under Homo sapiens is 0.52 °C; in experiment [1] it was -0.28 °C; in experiment [2], 0.77 °C; in experiment [3], 2.17 °C; in experiment [4], 0.45 °C.
In the case of `CC(NC(=O)CCc1nc2ccccc2c(=O)[nH]1)c1ccc(-n2ccnc2)cc1` (racemic), the ΔTm in the experiment filed under Homo sapiens was found to be 0.64 °C.
As for `O=C(CCc1nc(O)c2ccccc2n1)NCc1ccccn1`, the ΔTm in the experiment filed under Homo sapiens turned out to be 0.15 °C; in experiment [2], 1.48 °C; in experiment [3], 1.93 °C; in experiment [4] it was 4.83 °C.
For the compound `O=C(CCc1nc2ccccc2c(=O)[nH]1)NC1CCCc2ccccc21` (stereo unspecified), the ΔTm in the experiment listed under Homo sapiens was determined as 1.83 °C; in experiment [1] it was 0.24 °C; in experiment [2] it was 1.11 °C; in experiment [3] it was 2.44 °C; in experiment [4] it was 2.28 °C.
In the case of `O=C(CCc1nc2ccccc2c(=O)[nH]1)NCc1ccc(OC(F)F)cc1`, the ΔTm was 0.96 °C in the experiment filed under Homo sapiens; 0.31 °C in experiment [1]; 1.35 °C in experiment [2]; 3.39 °C in experiment [3]; 0.78 °C in experiment [4].
With `C[C@H](NC(=O)Cc1nc2ccccc2c(=O)[nH]1)c1ccccc1`, the ΔTm was 0.01 °C in the experiment listed under Homo sapiens; 0.04 °C in experiment [1]; -0.01 °C in experiment [2]; 0.31 °C in experiment [3]; 0.43 °C in experiment [4].
The like results for `O=C(CCc1nc2ccccc2c(=O)[nH]1)NCc1ccc(F)cc1` were, in that order, 0.69 °C, 0.69 °C, 1.37 °C, 3.11 °C and 4.2 °C.
On to `O=C(CCc1nc2ccccc2c(=O)[nH]1)NCc1ccccc1`, for which the ΔTm in the experiment listed under Homo sapiens was 0.32 °C; in experiment [1], -0.28 °C; in experiment [2] it was 1.77 °C; in experiment [3] it was 2.16 °C; in experiment [4], 2.63 °C.
Turning to `O=C(CCCc1nc2ccccc2c(=O)[nH]1)N[C@H](CO)c1ccccc1`, the ΔTm amounted to 1.05 °C in the experiment filed under Homo sapiens; 0.53 °C in experiment [1]; 1.84 °C in experiment [2]; 2.9 °C in experiment [3]; 3.22 °C in experiment [4].
Turning to `CC(NC(=O)CCc1nc2ccccc2c(=O)[nH]1)c1ccc(S(N)(=O)=O)cc1` (racemic), the ΔTm in the experiment listed under Homo sapiens amounted to 1.94 °C.
`O=C(CCc1nc2ccccc2c(=O)[nH]1)NCc1ccccc1Cl`: the ΔTm in the experiment listed under Homo sapiens stood at 0.48 °C; in experiment [1], 0.26 °C; in experiment [2], 1.64 °C; in experiment [3], 1.85 °C; in experiment [4], 5.39 °C.
For the compound `CON(C)C(=O)[C@H](Cc1ccccc1)NC(=O)CCc1nc2ccccc2c(=O)[nH]1`, the ΔTm in the experiment listed under Homo sapiens came to 0.11 °C; in experiment [1] it was 0.32 °C; in experiment [2], 0.33 °C; in experiment [3] it was 1.37 °C; in experiment [4], 5.94 °C.
On to `CC[C@@H](CO)NC(=O)CCc1nc2ccccc2c(=O)[nH]1`, for which the ΔTm in the experiment listed under Homo sapiens is 0.35 °C.
Turning to `COC(=O)[C@H](Cc1ccccc1)NC(=O)CCc1nc2ccccc2c(=O)[nH]1`, the ΔTm in the experiment listed under Homo sapiens was 0.5 °C.
Regarding `C[C@@H](CO)NC(=O)CCc1nc2ccccc2c(=O)[nH]1`, the ΔTm in the experiment filed under Homo sapiens is 0.56 °C.
`C[C@@H](NC(=O)CCc1nc2ccccc2c(=O)[nH]1)c1ccccn1`: the ΔTm in the experiment filed under Homo sapiens was determined as 0.12 °C.
